According to PubChem BioAssay (NCI):
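Five compound concentrations were applied to cells in 96-well plates for 48 hours; endpoints were derived by simple linear interpolation of the resulting dose-response curve. TGI denotes the concentration required for complete inhibition of growth.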

Columns and labels:
Assay in all cases: DTP human tumour cell line panel, 48 h
786-0 renal = system: 786-0 renal
A498 renal = system: A498 renal
A549 NSCLC = system: A549 NSCLC
ACHN renal = system: ACHN renal
BT-549 breast = system: BT-549 breast
CAKI-1 renal = system: CAKI-1 renal
CCRF-CEM leukemia = system: CCRF-CEM leukemia
COLO 205 colon = system: COLO 205 colon
DU-145 prostate = system: DU-145 prostate
EKVX NSCLC = system: EKVX NSCLC
HCC-2998 colon = system: HCC-2998 colon
HCT-116 colon = system: HCT-116 colon
HCT-15 colon = system: HCT-15 colon
HOP-62 NSCLC = system: HOP-62 NSCLC
HOP-92 NSCLC = system: HOP-92 NSCLC
HS 578T breast = system: HS 578T breast
HT29 colon = system: HT29 colon
IGROV1 ovarian = system: IGROV1 ovarian
K-562 leukemia = system: K-562 leukemia
KM12 colon = system: KM12 colon
LOX IMVI melanoma = system: LOX IMVI melanoma
M14 melanoma = system: M14 melanoma
MALME-3M melanoma = system: MALME-3M melanoma
MCF7 breast = system: MCF7 breast
MDA-MB-231 breast = system: MDA-MB-231 breast
MDA-MB-435 = system: MDA-MB-435
MDA-N = system: MDA-N
MOLT-4 leukemia = system: MOLT-4 leukemia
NCI-H226 lung = system: NCI-H226 lung
NCI-H23 lung = system: NCI-H23 lung
NCI-H460 lung = system: NCI-H460 lung
NCI-H522 lung = system: NCI-H522 lung
NCI/ADR-RES ovarian = system: NCI/ADR-RES ovarian
OVCAR-3 ovarian = system: OVCAR-3 ovarian
OVCAR-4 ovarian = system: OVCAR-4 ovarian
OVCAR-5 ovarian = system: OVCAR-5 ovarian
OVCAR-8 ovarian = system: OVCAR-8 ovarian
PC-3 prostate = system: PC-3 prostate
RPMI-8226 leukemia = system: RPMI-8226 leukemia
RXF 393 renal = system: RXF 393 renal
SF-268 CNS = system: SF-268 CNS
SF-295 CNS = system: SF-295 CNS
SF-539 CNS = system: SF-539 CNS
SK-MEL-2 melanoma = system: SK-MEL-2 melanoma
SK-MEL-28 melanoma = system: SK-MEL-28 melanoma
SK-MEL-5 melanoma = system: SK-MEL-5 melanoma
SK-OV-3 ovarian = system: SK-OV-3 ovarian
SN12C renal = system: SN12C renal
SNB-19 CNS = system: SNB-19 CNS
SNB-75 CNS = system: SNB-75 CNS
SR leukemia = system: SR leukemia
SW-620 colon = system: SW-620 colon
T-47D breast = system: T-47D breast
TK-10 renal = system: TK-10 renal
UACC-257 melanoma = system: UACC-257 melanoma
UACC-62 melanoma = system: UACC-62 melanoma
UO-31 renal = system: UO-31 renal
U251 CNS = system: U251 CNS
HL-60(TB) leukemia = system: HL-60(TB) leukemia

O=C1Cc2c(-c3cccs3)cc(-c3ccccc3)nc2-c2ccccc2N1 was tested, and the TGI (786-0 renal) was > 100 µM, the TGI (A498 renal) was > 100 µM and the TGI (A549 NSCLC) was > 100 µM. The TGI (ACHN renal) was > 100 µM, the TGI (BT-549 breast) was > 100 µM and the TGI (CAKI-1 renal) was > 100 µM. The TGI (CCRF-CEM leukemia) was > 100 µM, the TGI (COLO 205 colon) was > 100 µM and the TGI (DU-145 prostate) was > 100 µM. For the same compound, the TGI (EKVX NSCLC) was > 100 µM, the TGI (HCC-2998 colon) was > 100 µM and the TGI (HCT-116 colon) was > 100 µM. The TGI (HCT-15 colon) was > 100 µM, the TGI (HOP-62 NSCLC) was > 100 µM and the TGI (HOP-92 NSCLC) was > 100 µM. It also gave a TGI (HS 578T breast) of 17.2 µM, a TGI (HT29 colon) of 43.9 µM and a TGI (IGROV1 ovarian) of 71.5 µM. For the same compound, the TGI (K-562 leukemia) was > 100 µM, the TGI (KM12 colon) was > 100 µM and the TGI (LOX IMVI melanoma) was > 100 µM. The TGI (M14 melanoma) was > 100 µM, the TGI (MALME-3M melanoma) was 45.7 µM and the TGI (MCF7 breast) was > 100 µM. The TGI (MDA-MB-231 breast) was > 100 µM, the TGI (MDA-MB-435) was > 100 µM and the TGI (MDA-N) was > 100 µM. For the same compound, the TGI (MOLT-4 leukemia) was > 100 µM, the TGI (NCI-H226 lung) was > 100 µM and the TGI (NCI-H23 lung) was > 100 µM. For the same compound, the TGI (NCI-H460 lung) was > 100 µM, the TGI (NCI-H522 lung) was > 100 µM and the TGI (NCI/ADR-RES ovarian) was > 100 µM. For the same compound, the TGI (OVCAR-3 ovarian) was > 100 µM, the TGI (OVCAR-4 ovarian) was > 100 µM and the TGI (OVCAR-5 ovarian) was > 100 µM. For the same compound, the TGI (OVCAR-8 ovarian) was 17.1 µM, the TGI (PC-3 prostate) was > 100 µM and the TGI (RPMI-8226 leukemia) was > 100 µM. The TGI (RXF 393 renal) was > 100 µM, the TGI (SF-268 CNS) was 56.8 µM and the TGI (SF-295 CNS) was > 100 µM. For the same compound, the TGI (SF-539 CNS) was > 100 µM, the TGI (SK-MEL-2 melanoma) was > 100 µM and the TGI (SK-MEL-28 melanoma) was > 100 µM. The TGI (SK-MEL-5 melanoma) was > 100 µM, the TGI (SK-OV-3 ovarian) was > 100 µM and the TGI (SN12C renal) was > 100 µM. The TGI (SNB-19 CNS) was > 100 µM, the TGI (SNB-75 CNS) was 41.9 µM and the TGI (SR leukemia) was > 100 µM. For the same compound, the TGI (SW-620 colon) was > 100 µM, the TGI (T-47D breast) was > 100 µM and the TGI (TK-10 renal) was > 100 µM. The TGI (UACC-257 melanoma) was > 100 µM, the TGI (UACC-62 melanoma) was > 100 µM and the TGI (UO-31 renal) was > 100 µM.

In the case of COc1cc2nc3n(c2cc1OC)C(O)c1c(Cl)nc(SC)nc1S3 (centres undefined), the TGI (786-0 renal) is reported as 7.85 µM, the TGI (A498 renal) is reported as 34.9 µM and the TGI (A549 NSCLC) is reported as 48 µM. For the same compound, the TGI (ACHN renal) was 42.2 µM, the TGI (BT-549 breast) was 9.37 µM and the TGI (CAKI-1 renal) was > 45.4 µM. The TGI (CCRF-CEM leukemia) was 3.91 µM, the TGI (COLO 205 colon) was 22.9 µM and the TGI (DU-145 prostate) was 24.1 µM. For the same compound, the TGI (EKVX NSCLC) was 40.6 µM, the TGI (HCC-2998 colon) was 20.2 µM and the TGI (HCT-116 colon) was 10.3 µM. The TGI (HCT-15 colon) was 12.3 µM, the TGI (HOP-62 NSCLC) was 26.1 µM and the TGI (HOP-92 NSCLC) was 68.3 µM. For the same compound, the TGI (HS 578T breast) was > 100 µM, the TGI (HT29 colon) was > 100 µM and the TGI (IGROV1 ovarian) was 13 µM. For the same compound, the TGI (K-562 leukemia) was > 100 µM, the TGI (KM12 colon) was > 100 µM and the TGI (LOX IMVI melanoma) was 5.07 µM. It also gave a TGI (M14 melanoma) of 21.8 µM, a TGI (MALME-3M melanoma) of 8.8 µM and a TGI (MCF7 breast) of 15 µM. For the same compound, the TGI (MDA-MB-231 breast) was > 81 µM, the TGI (MDA-MB-435) was > 64.3 µM and the TGI (MDA-N) was 24 µM. The TGI (MOLT-4 leukemia) was > 48.9 µM, the TGI (NCI-H226 lung) was 28 µM and the TGI (NCI-H23 lung) was 18.3 µM. It also gave a TGI (NCI-H460 lung) of 19.6 µM, a TGI (NCI-H522 lung) of 4.36 µM and a TGI (NCI/ADR-RES ovarian) of 18.7 µM. For the same compound, the TGI (OVCAR-3 ovarian) was 13.3 µM, the TGI (OVCAR-4 ovarian) was > 39 µM and the TGI (OVCAR-5 ovarian) was > 95.1 µM. The TGI (OVCAR-8 ovarian) was 7.06 µM, the TGI (PC-3 prostate) was > 49.8 µM and the TGI (RPMI-8226 leukemia) was > 37 µM. The TGI (RXF 393 renal) was 14.8 µM, the TGI (SF-268 CNS) was > 100 µM and the TGI (SF-295 CNS) was > 94.5 µM. The TGI (SF-539 CNS) was 5.22 µM, the TGI (SK-MEL-2 melanoma) was > 27.2 µM and the TGI (SK-MEL-28 melanoma) was 23.2 µM. It also gave a TGI (SK-MEL-5 melanoma) of 8.94 µM, a TGI (SK-OV-3 ovarian) of 30.8 µM and a TGI (SN12C renal) of 21 µM. The TGI (SNB-19 CNS) was > 37.7 µM, the TGI (SNB-75 CNS) was > 68 µM and the TGI (SR leukemia) was > 100 µM. For the same compound, the TGI (SW-620 colon) was 22.8 µM, the TGI (T-47D breast) was > 59 µM and the TGI (TK-10 renal) was > 74 µM. For the same compound, the TGI (U251 CNS) was 26.3 µM, the TGI (UACC-257 melanoma) was 52.5 µM and the TGI (UACC-62 melanoma) was 25.2 µM. The TGI (UO-31 renal) was 13.2 µM.

With O=C1C2C3C4C1C1C2[C@H](OCc2ccccc2)C3C1[C@H]4OCc1ccccc1 (some centres undefined) the TGI (786-0 renal) was > 100 µM, the TGI (A498 renal) was > 100 µM and the TGI (A549 NSCLC) was > 100 µM. For the same compound, the TGI (ACHN renal) was > 100 µM, the TGI (BT-549 breast) was > 100 µM and the TGI (CAKI-1 renal) was > 100 µM. For the same compound, the TGI (CCRF-CEM leukemia) was > 100 µM, the TGI (COLO 205 colon) was 82.5 µM and the TGI (DU-145 prostate) was > 100 µM. The TGI (EKVX NSCLC) was 89.1 µM, the TGI (HCC-2998 colon) was > 100 µM and the TGI (HCT-116 colon) was > 100 µM. The TGI (HCT-15 colon) was 57.9 µM, the TGI (HL-60(TB) leukemia) was 50.9 µM and the TGI (HOP-62 NSCLC) was > 100 µM. The TGI (HOP-92 NSCLC) was 66.3 µM, the TGI (HS 578T breast) was 60.4 µM and the TGI (HT29 colon) was 32.7 µM. The TGI (IGROV1 ovarian) was > 100 µM, the TGI (K-562 leukemia) was > 100 µM and the TGI (KM12 colon) was > 100 µM. The TGI (LOX IMVI melanoma) was > 100 µM, the TGI (M14 melanoma) was > 100 µM and the TGI (MALME-3M melanoma) was > 100 µM. For the same compound, the TGI (MCF7 breast) was > 100 µM, the TGI (MDA-MB-231 breast) was > 100 µM and the TGI (MDA-MB-435) was > 100 µM. For the same compound, the TGI (MDA-N) was > 100 µM, the TGI (MOLT-4 leukemia) was > 100 µM and the TGI (NCI-H226 lung) was > 100 µM. For the same compound, the TGI (NCI-H23 lung) was > 100 µM, the TGI (NCI-H460 lung) was > 100 µM and the TGI (NCI-H522 lung) was 57.9 µM. For the same compound, the TGI (NCI/ADR-RES ovarian) was 54.8 µM, the TGI (OVCAR-3 ovarian) was > 100 µM and the TGI (OVCAR-4 ovarian) was > 100 µM. The TGI (OVCAR-5 ovarian) was 56 µM, the TGI (OVCAR-8 ovarian) was > 100 µM and the TGI (PC-3 prostate) was > 100 µM. For the same compound, the TGI (RPMI-8226 leukemia) was > 100 µM, the TGI (RXF 393 renal) was > 100 µM and the TGI (SF-268 CNS) was > 100 µM. For the same compound, the TGI (SF-295 CNS) was > 100 µM, the TGI (SF-539 CNS) was > 100 µM and the TGI (SK-MEL-2 melanoma) was > 100 µM. The TGI (SK-MEL-28 melanoma) was > 100 µM, the TGI (SK-MEL-5 melanoma) was > 100 µM and the TGI (SK-OV-3 ovarian) was > 100 µM. For the same compound, the TGI (SN12C renal) was > 100 µM, the TGI (SNB-19 CNS) was > 100 µM and the TGI (SNB-75 CNS) was > 100 µM. The TGI (SR leukemia) was > 100 µM, the TGI (SW-620 colon) was > 100 µM and the TGI (T-47D breast) was > 100 µM. The TGI (TK-10 renal) was > 100 µM, the TGI (U251 CNS) was > 100 µM and the TGI (UACC-257 melanoma) was > 100 µM. For the same compound, the TGI (UACC-62 melanoma) was > 100 µM and the TGI (UO-31 renal) was > 100 µM.
